Where two headings read alike, the source gives them in different places.
Tests used:
[1] = Solubility of azithromycin dihydrate in molten excipient; type: physicochemical; details: 65° C.
Protocol: The solubility of azithromycin dihydrate in beeswax was measured using the following procedure. A 5 g sample of beeswax was placed in a glass vial and melted at 65° C. by placing the vial in a hot-water bath. Crystals of azithromycin dihydrate were then slowly added to the molten wax, with stirring. The crystals first added dissolved into the wax. […] Thus, the solubility of azithromycin dihydrate in beeswax was determined to be about 6 wt %.
Using the procedure outlined in Screening Example 29, the solubility of azithromycin dihydrate in the excipients listed in Table 8 was determined at the temperatures listed therein. In addition, the solubility of azithromycin dihydrate was determined for mixtures of carriers in the weight ratios reported in Table 8.

[2] = cited from earlier work
[3] = Degree of acid/ester substitution [A] from Saponification Number; type: physicochemical; details: for [A] degree of acid/ester substitution: Saponification Number (Pharmaceutical Excipients 2000) divided by 56.11
Excerpt: However, in most cases, the excipient candidate is not available in pure form, and may constitute a mixture of several primary molecular types as well as small amounts of impurities or degradation products that could be acids or esters. In addition, many excipient candidates are natural products or are derived from natural products that may contain a wide range of compounds, making the above calculations extremely difficult, if not impossible. […] The Saponification Number is the number of milligrams of potassium hydroxide required to neutralize or hydrolyze any acid or ester substituents present in 1 gram of the material. Measurement of the Saponification Number is a standard way to characterize many commercially available pharmaceutical excipients and the manufacturer often provides an excipient's Saponification Number. The Saponification Number will not only account for acid and ester substituents present on the excipient itself, but also for any such substituents present due to impurities or degradation products in the excipient. Thus, the Saponification Number will often provide a more accurate measure of the degree of acid/ester substitution in the excipient.
The degree of acid and ester substitution on a excipient can be calculated from the Saponification Number as follows. Dividing the Saponification Number by the molecular weight of potassium hydroxide, 56.11 g/mol, results in the number of millimoles of potassium hydroxide required to neutralize or hydrolyze any acid or ester substituents present in one gram of the excipient. Since one mole of potassium hydroxide will neutralize one equivalent of acid or ester substituents, dividing the Saponification Number by the molecular weight of potassium hydroxide also results in the number of meq of acid or ester substituents present in one gram of excipient.
For example, glyceryl monostearate can be obtained with a Saponification Number of 165, as specified by the manufacturer. Thus, the degree of acid/ester substitution per gram of glyceryl monostearate or its acid/ester concentration is 165÷56.11=2.9 meq/g excipient. Using the above example of a composition with 30 wt % azithromycin and 70 wt % glyceryl monostearate, the theoretical concentration of esters formed per gram of azithromycin if all of the azithromycin reacted would be 2.9 meq/g×70/30=6.8 meq/g.
This example illustrates how the degree of acid/ester substitution can be determined from the Saponification Number for an excipient. The degree of acid/ester substitution [A] for the excipients listed in Table 5 was determined by dividing by 56.11 the Saponification Number for the carrier as listed in Pharmaceutical Excipients 2000.
This example illustrates how the degree of acid/ester substitution can be determined from the Saponification Number for an excipient. The degree of acid/ester substitution for the excipients listed in Table 6 were determined by dividing by 56.11 the Saponification Number provided by the manufacturer.

[4] = as listed in Pharmaceutical Excipients 2000

Compound	solubility of azithromycin dihydrate in beeswax [1]	Saponification Number [2, 4]	[A] degree of acid/ester substitution [3]	Saponification Number ([2]; as specified by the manufacturer (description example))	degree of acid/ester substitution (acid/ester concentration) ([3]; 165÷56.11)
CC[C@H]1OC(=O)[C@H](C)[C@@H](O[C@H]2C[C@@](C)(OC)[C@@H](O)[C@H](C)O2)[C@H](C)[C@@H](O[C@@H]2O[C@H](C)C[C@H](N(C)C)[C@H]2O)[C@](C)(O)C[C@@H](C)CN(C)[C@H](C)[C@@H](O)[C@]1(C)O [azithromycin dihydrate, 9a-aza-9a-methyl-9-deoxo-9a-homoerythromycin A]	about 6 wt %				
CCCCCCCCCCCCCCCCO [cetyl alcohol]		<2	<0.04 meq/g carrier		
CCCCCCCC/C=C\CCCCCCCC(=O)OCC(O)CO (stereo not drawn) [glyceryl monooleate]		160-170	2.9-3.0 meq/g carrier		
CCCCCCCCCCCCCCCCCC(=O)OCC(O)CO (stereo not drawn) [glyceryl monostearate]		155-165	2.8-2.9 meq/g carrier	165	2.9 meq/g excipient
CCCCCCCCCCCCCCCCCC(=O)O [stearic acid, octadecanoic acid]		200-220	3.6-3.9 meq/g carrier		
CCCCCCCCCCCCCCCCCCO [stearyl alcohol, 1-octadecanol]		<2	<0.04 meq/g carrier		
sorbitan monostearate		147-157	2.6-2.8 meq/g carrier		
